# Data taken from ChEMBL document CHEMBL4808232, “Discovery of IDO1 inhibitors containing a decahydroquinoline, decahydro-1,6-naphthyridine, or octahydro-1H-pyrrolo[3,2-c]pyridine scaffold” (Bioorg Med Chem Lett, 2021).
# Columns and labels:
# [1] = biological target: T1, Indoleamine 2,3-dioxygenase 1 (Homo sapiens, UniProt P14902); experiment: Inhibition of IDO1 in human HeLa cells assessed as production of N-formylkynurenine using tryptophan as substrate in presence of inactivated fetal bovine serum; assay type: cell-based
# T1 sequence (P14902 whole entry): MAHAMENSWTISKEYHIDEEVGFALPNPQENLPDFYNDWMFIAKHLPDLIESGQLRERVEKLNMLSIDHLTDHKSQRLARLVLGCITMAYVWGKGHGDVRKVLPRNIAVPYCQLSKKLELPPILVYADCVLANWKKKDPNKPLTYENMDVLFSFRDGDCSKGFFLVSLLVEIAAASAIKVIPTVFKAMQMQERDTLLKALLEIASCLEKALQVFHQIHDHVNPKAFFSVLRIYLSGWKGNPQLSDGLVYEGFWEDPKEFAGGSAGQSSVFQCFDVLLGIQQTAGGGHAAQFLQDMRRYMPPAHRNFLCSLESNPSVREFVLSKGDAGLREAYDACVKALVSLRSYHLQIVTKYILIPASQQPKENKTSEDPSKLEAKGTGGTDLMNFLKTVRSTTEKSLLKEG
# [2] = biological target: T1, Indoleamine 2,3-dioxygenase 1; experiment: Inhibition of IDO1 in human whole blood; assay type: tissue-based
# [3] = biological target: T1, Indoleamine 2,3-dioxygenase 1; experiment: Inhibition of IDO1 in human whole blood assessed as unbound concentration; assay type: tissue-based
# [4] = Unbound clearance in male Wistar Han rat at 0.05 mg/kg, iv; assay type: ADME, organism-based; conditions: in vivo
# [5] = MRT in male Wistar Han rat at 0.05 mg/kg, iv; assay type: ADME, organism-based; conditions: in vivo
# [6] = Clearance in male Wistar Han rats at 0.05 mg/kg, iv; assay type: ADME, organism-based; conditions: rat, in vivo
# [7] = Clearance in Beagle dog at 0.05 mg/kg, iv; assay type: ADME, organism-based, Canis lupus familiaris; conditions: in vivo
# [8] = Unbound clearance in Beagle dog at 0.05 mg/kg, iv; assay type: ADME, organism-based, Canis lupus familiaris; conditions: in vivo
# [9] = MRT in Beagle dog at 0.05 mg/kg, iv; assay type: ADME, organism-based, Canis lupus familiaris; conditions: in vivo
# [10] = male, Wistar Han, read-out: MRT
Compound,IC50 [1],IC50 [2],IC50 [3],CL free [4],MRT ([5]; 0.05 mg/kg),clearance [6],"MRT [5, 10]",clearance [7],CL free [8],MRT [9]
O=C(C1CC1)N1CCCC2CC(C3(C(=O)Nc4ccc(F)cc4)CCC3)CCC21 (stereo in doubt; 12),1.5 nM,15 nM,0.86 nM,–,–,–,–,–,–,–
CC(C(=O)Nc1ccc(Cl)cc1)N1CCC2C(CCCN2c2ccnc(C(F)(F)F)n2)C1 (stereo in doubt; 34),3.6 nM,809 nM,–,13004 mL/min/kg,–,–,–,–,–,–
C[C@@H](C(=O)Nc1ccc(F)cc1)C1CCC2C(CCCN2C(=O)c2cccc(Cl)c2)C1 (stereo in doubt; 5),2.1 nM,312 nM,–,–,–,–,–,–,–,–
CC(C(=O)Nc1ccc(Cl)cc1)N1CCC2C(CCCN2c2ccnc(C(F)(F)F)n2)C1 (stereo in doubt; 36),5.4 nM,1000 nM,–,27767 mL/min/kg,3.7 h,–,–,–,–,–
O=C(CN1CCC2C(CCCN2C(=O)c2cccc(Cl)c2)C1)Nc1ccc(F)cc1 (stereo in doubt; 24),2 nM,–,–,1401 mL/min/kg,–,61 mL/min/kg,1.6 h,–,–,–
O=C(Nc1ccc(F)cc1)C1(C2CCC3C(CCCN3c3ccnc(C(F)(F)F)n3)C2)CCC1 (stereo in doubt; 20),1.9 nM,48 nM,0.1 nM,9879 mL/min/kg,2.7 h,–,–,–,–,–
C[C@@H](C(=O)Nc1ccc(F)cc1)C1CCC2C(CCCN2C(=O)c2cccc(Cl)c2)C1 (stereo in doubt; 3),1 nM,32 nM,0.13 nM,4427 mL/min/kg,–,51 mL/min/kg,1.6 h,–,–,–
CC(C(=O)Nc1ccc(Cl)cc1)N1CCC2C(CCCN2C(=O)OC2CC2)C1 (stereo in doubt; 27),1.9 nM,43 nM,0.73 nM,1613 mL/min/kg,–,22 mL/min/kg,2.9 h,9 mL/min/kg,727 mL/min/kg,8.1 h
O=C(c1cccc(Cl)c1)N1CCCC2CC(C3(C(=O)Nc4ccc(F)cc4)CCC3)CCC21 (stereo in doubt; 7),2.4 nM,123 nM,0.98 nM,–,–,–,–,–,–,–
Cc1nccc(N2CCCC3CC(C4(C(=O)Nc5ccc(F)cc5)CCC4)CCC32)n1 (stereo in doubt; 15),1.6 nM,10 nM,0.29 nM,1309 mL/min/kg,–,–,1.7 h,–,–,–
Cc1nccc(N2CCCC3CN(C(C)C(=O)Nc4ccc(Cl)cc4)CCC32)n1 (stereo in doubt; 32),12 nM,–,–,2381 mL/min/kg,–,31 mL/min/kg,2.9 h,–,–,–
CC(C(=O)Nc1ccc(Cl)cc1)N1CCC2C(CCCN2c2ccnc(C(F)(F)F)n2)C1 (stereo in doubt; 33),15 nM,–,–,8439 mL/min/kg,–,19 mL/min/kg,3 h,–,–,–
